What follows are compounds tested against T1, human GPR119 (hGPR119) (Homo sapiens, UniProt Q8TDV5) (assay: cAMP accumulation assay in CHO-K1 cells stably expressing hGPR119). Settings: cAMP HTRF, 60 minutes.
T1 construct: expressed in transfected cells; host or cells: CHO-K1
T1 sequence (Q8TDV5 1-335): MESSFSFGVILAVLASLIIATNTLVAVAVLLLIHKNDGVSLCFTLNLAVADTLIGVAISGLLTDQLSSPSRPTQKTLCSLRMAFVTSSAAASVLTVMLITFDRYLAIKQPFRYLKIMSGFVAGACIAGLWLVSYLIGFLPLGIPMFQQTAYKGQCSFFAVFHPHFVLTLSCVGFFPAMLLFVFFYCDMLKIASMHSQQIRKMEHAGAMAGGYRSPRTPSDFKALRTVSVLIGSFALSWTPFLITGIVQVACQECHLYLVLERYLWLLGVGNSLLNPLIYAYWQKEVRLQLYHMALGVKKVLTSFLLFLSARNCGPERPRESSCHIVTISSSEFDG
Assay type: cell-based
Protocol: CHO-K1 cells stably expressing human GPR119 (hGPR119) were prepared by transfection of a GPR119-carrying plasmid using Lipofectamine 2000 (following manufacturer instructions). A stable cell line was established using the limiting dilution method with geneticine selection. Assay-ready frozen (ARF) cells were prepared and used throughout the study.
The assay was performed in a 384-well plate format using the CAMP Gs dynamic assay kit from Cisbio. ARF cells expressing hGPR119 were thawed, washed and then resuspended in CAMP stimulation buffer at a cell density of 1.1×10^6 cells/mL. Cells were plated at a density of ~10,000 cells/well (9 μL/well). Dose response curves for the tested compounds were prepared in a cAMP stimulation buffer, containing 0.1% Tween 80 at 4 fold the final concentration. The compounds were then transferred to the cell plates using BRAVO (3 μL/well) and the plates were incubated for 60 minutes at 37° C./5% CO2. Detection buffer (10 μL, prepared as described in the CAMP Gs dynamic kit) were added to each well, and the plates were incubated at ambient temperature for 1 hr.
RT-FRET was measured using a ClarioSTAR plate reader, calculating the ratio between emissions at 665 nm and 620 nm (HTRF ratio). The HTRF ratio for positive (Max) and negative (Min) controls were used to normalize HTRF data and generate values for % activity. EC50 and Max activity values were determined using a standard 4-parameter fit.

| SMILES | EC50 |
| --- | --- |
| CCCc1cnc(N2CCC(CCCOc3ccc(CC(=O)N4CC(CNCC(CO)CO)C4)c(F)c3)CC2)nc1 [Compound A40, 2-(2-fluoro-4-(3-(1-(5-propylpyrimidin-2-yl)piperidin-4-yl)propoxy)phenyl)-1-(3-(((3-hydroxy-2-(hydroxymethyl)propyl)amino)methyl)azetidin-1-yl)ethan-1-one] | ≤ 100 nM |
| CCCc1cnc(N2CCC(CCCOc3ccc(CC(=O)N4CC(CNCC(O)(CO)CO)C4)c(F)c3)CC2)nc1 [Compound A41, 1-(3-(((2,3-dihydroxy-2-(hydroxymethyl)propyl)amino)methyl)azetidin-1-yl)-2-(2-fluoro-4-(3-(1-(5-propylpyrimidin-2-yl)piperidin-4-yl)propoxy)phenyl)ethan-1-one] | ≤ 100 nM |
| CCCc1cnc(N2CCC(CCCOc3ccc(CC(=O)N4CC(CNC[C@H](O)[C@@H](O)[C@H](O)[C@H](O)CO)C4)c(F)c3)CC2)nc1 [Compound A44, 2-(2-fluoro-4-(3-(1-(5-propylpyrimidin-2-yl)piperidin-4-yl)propoxy)phenyl)-1-(3-((((2S,3R,4R,5R)-2,3,4,5,6-pentahydroxyhexyl)amino)methyl)azetidin-1-yl)ethan-1-one] | 100 to 1000 nM |
| CCCc1cnc(N2CCC(CCCOc3cc(F)c(CC(=O)N4CC(CNC(CO)(CO)CO)C4)c(F)c3)CC2)nc1 [Compound A46, 2-(2,6-difluoro-4-(3-(1-(5-propylpyrimidin-2-yl)piperidin-4-yl)propoxy)phenyl)-1-(3-(((1,3-dihydroxy-2-(hydroxymethyl)propan-2-yl)amino)methyl)azetidin-1-yl)ethan-1-one] | ≤ 100 nM |
| COCc1cnc(N2CCC(CCCOc3ccc(CC(=O)N4CC(CNCC[C@@H](O)C[C@@H](O)CC(=O)O)C4)c(F)c3)CC2)nc1 [Compound A52, (3R,5R)-7-[[1-[2-[2-fluoro-4-[3-[1-[5-(methoxymethyl)pyrimidin-2-yl]-4-piperidyl]propoxy]phenyl]acetyl]azetidin-3-yl]methylamino]-3,5-dihydroxy-heptanoic acid] | 100 to 1000 nM |
| COCc1cnc(N2CCC(CCCOc3ccc(CC(=O)N4CC(CNC[C@H](O)[C@@H](O)[C@H](O)[C@H](O)CO)C4)c(F)c3)CC2)nc1 [Compound A53, 2-[2-fluoro-4-[3-[1-[5-(methoxymethyl)pyrimidin-2-yl]-4-piperidyl]propoxy]phenyl]-1-[3-[[[(2S,3R,4R,5R)-2,3,4,5,6-pentahydroxyhexyl]amino]methyl]azetidin-1-yl]ethanone] | 100 to 1000 nM |
| O=C(Cc1ccc(OCCCC2CCN(c3ncc(Cl)cn3)CC2)cc1F)N1CC(CCNC[C@H](O)[C@H](O)[C@H](O)CO)C1 [Compound A59, 2-[4-[3-[1-(5-chloropyrimidin-2-yl)-4-piperidyl]propoxy]-2-fluoro-phenyl]-1-[3-[2-[[(2S,3S,4R)-2,3,4,5-tetrahydroxypentyl]amino]ethyl]azetidin-1-yl]ethanone] | ≤ 100 nM |

Results, then the compound that gave them:

| EC50 | SMILES |
| --- | --- |
| ≤ 100 nM | CCCc1cnc(N2CCC(CCCOc3ccc(CC(=O)N4CC(CNC(CO)(CO)CO)C4)c(F)c3)CC2)nc1 [Compound A42, 1-(3-(((1,3-dihydroxy-2-(hydroxymethyl)propan-2-yl)amino)methyl)azetidin-1-yl)-2-(2-fluoro-4-(3-(1-(5-propylpyrimidin-2-yl)piperidin-4-yl)propoxy)phenyl)ethan-1-one] |
| 100 to 1000 nM | CCCc1cnc(N2CCC(CCCOc3ccc(CC(=O)N4CC(CNCCNC(=O)NC(CO)(CO)CO)C4)c(F)c3)CC2)nc1 [Compound A43, 1-(1,3-dihydroxy-2-(hydroxymethyl)propan-2-yl)-3-(2-(((1-(2-(2-fluoro-4-(3-(1-(5-propylpyrimidin-2-yl)piperidin-4-yl)propoxy)phenyl)acetyl)azetidin-3-yl)methyl)amino)ethyl)urea] |
| ≤ 100 nM | CCCc1cnc(N2CCC(CCCOc3cc(F)c(CC(=O)N4CC(CNCC(O)(CO)CO)C4)c(F)c3)CC2)nc1 [Compound A45, 2-(2,6-difluoro-4-(3-(1-(5-propylpyrimidin-2-yl)piperidin-4-yl)propoxy)phenyl)-1-(3-(((2,3-dihydroxy-2-(hydroxymethyl)propyl)amino)methyl)azetidin-1-yl)ethan-1-one] |
| 100 to 1000 nM | CCCc1cnc(N2CCC(CCCOc3cc(F)c(CC(=O)N4CC(CNCCNC(=O)NC(CO)(CO)CO)C4)c(F)c3)CC2)nc1 [Compound A47, 1-(2-(((1-(2-(2,6-difluoro-4-(3-(1-(5-propylpyrimidin-2-yl)piperidin-4-yl)propoxy)phenyl)acetyl)azetidin-3-yl)methyl)amino)ethyl)-3-(1,3-dihydroxy-2-(hydroxymethyl)propan-2-yl)urea] |
| ≤ 100 nM | CCCc1cnc(N2CCC(CCCOc3cc(F)c(CC(=O)N4CC(CNC[C@H](O)[C@@H](O)[C@H](O)[C@H](O)CO)C4)c(F)c3)CC2)nc1 [Compound A48, 2-(2,6-difluoro-4-(3-(1-(5-propylpyrimidin-2-yl)piperidin-4-yl)propoxy)phenyl)-1-(3-((((2S,3R,4R,5R)-2,3,4,5,6-pentahydroxyhexyl)amino)methyl)azetidin-1-yl)ethan-1-one] |
| 100 to 1000 nM | COC(=O)c1cnc(N2CCC(CCCOc3ccc(CC(=O)N4CC(CNC[C@H](O)[C@@H](O)[C@H](O)[C@H](O)CO)C4)c(F)c3)CC2)nc1 [Compound A54, methyl 2-[4-[3-[3-fluoro-4-[2-oxo-2-[3-[[[(2S,3R,4R,5R)-2,3,4,5,6-pentahydroxyhexyl]amino]methyl]azetidin-1-yl]ethyl]phenoxy]propyl]-1-piperidyl]pyrimidine-5-carboxylate] |
| 1000 to 10000 nM | O=C(Cc1ccc(OCCCC2CCN(c3ncc(CO)cn3)CC2)cc1F)N1CC(CNC[C@H](O)[C@@H](O)[C@H](O)[C@H](O)CO)C1 [Compound A55, 2-[2-fluoro-4-[3-[1-[5-(hydroxymethyl)pyrimidin-2-yl]-4-piperidyl]propoxy]phenyl]-1-[3-[[[(2S,3R,4R,5R)-2,3,4,5,6-pentahydroxyhexyl]amino]methyl]azetidin-1-yl]ethanone] |
| 100 to 1000 nM | COCc1cnc(N2CCC(CCCOc3cc(F)c(CC(=O)N4CC(CNC[C@H](O)[C@@H](O)[C@H](O)[C@H](O)CO)C4)c(F)c3)CC2)nc1 [Compound A56] |
| ≤ 100 nM | CCOc1cnc(N2CCC(CCCOc3ccc(CC(=O)N4CC(CC(=O)NCC(O)(CO)CO)C4)c(F)c3)CC2)nc1 [Compound A57, N-[2,3-dihydroxy-2-(hydroxymethyl)propyl]-2-[1-[2-[4-[3-[1-(5-ethoxypyrimidin-2-yl)-4-piperidyl]propoxy]-2-fluoro-phenyl]acetyl]azetidin-3-yl]acetamide] |
| ≤ 100 nM | CCOc1cnc(N2CCC(CCCOc3cc(F)c(CC(=O)N4CC(CNC[C@H](O)[C@@H](O)[C@H](O)[C@H](O)CO)C4)c(F)c3)CC2)nc1 [Compound A58, 2-[4-[3-[1-(5-ethoxypyrimidin-2-yl)-4-piperidyl]propoxy]-2,6-difluoro-phenyl]-1-[3-[[[(2S,3R,4R,5R)-2,3,4,5,6-pentahydroxyhexyl]amino]methyl]azetidin-1-yl]ethanone] |
| ≤ 100 nM | O=C(Cc1ccc(OCCCC2CCN(c3ncc(Cl)cn3)CC2)cc1F)N1CC(CNC[C@H](O)[C@H](O)[C@H](O)CO)C1 [Compound A60, 2-[4-[3-[1-(5-chloropyrimidin-2-yl)-4-piperidyl]propoxy]-2-fluoro-phenyl]-1-[3-[[[(2S,3S,4R)-2,3,4,5-tetrahydroxypentyl]amino]methyl]azetidin-1-yl]ethanone] |

Source: patent publication US20260191858A1, “COMBINATION THERAPIES” (Kallyope, Inc., priority 2022, published 2026)
